Test results: PubChem BioAssay (NCI)
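Method: 48-hour compound exposure of cells in 96-well plates, five concentrations, linear interpolation of endpoints. GI50 marks 50% less growth. TGI is the concentration that stops growth completely.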

How the values were obtained:
Experiment in all cases: NCI-60 cell line screen, 48 h
SK-MEL-2 melanoma = system: SK-MEL-2 melanoma
SF-268 CNS = system: SF-268 CNS
U251 CNS = system: U251 CNS
MOLT-4 leukemia = system: MOLT-4 leukemia
KM12 colon = system: KM12 colon
K-562 leukemia = system: K-562 leukemia
PC-3 prostate = system: PC-3 prostate
SN12C renal = system: SN12C renal
HCT-116 colon = system: HCT-116 colon
IGROV1 ovarian = system: IGROV1 ovarian
SNB-19 CNS = system: SNB-19 CNS
EKVX NSCLC = system: EKVX NSCLC
LOX IMVI melanoma = system: LOX IMVI melanoma
SF-295 CNS = system: SF-295 CNS
CAKI-1 renal = system: CAKI-1 renal
SW-620 colon = system: SW-620 colon
M14 melanoma = system: M14 melanoma
NCI-H226 lung = system: NCI-H226 lung
T-47D breast = system: T-47D breast
HT29 colon = system: HT29 colon
SK-MEL-28 melanoma = system: SK-MEL-28 melanoma
HCC-2998 colon = system: HCC-2998 colon
ACHN renal = system: ACHN renal
A549 NSCLC = system: A549 NSCLC
MDA-MB-435 = system: MDA-MB-435
MCF7 breast = system: MCF7 breast
NCI-H522 lung = system: NCI-H522 lung
HOP-92 NSCLC = system: HOP-92 NSCLC
COLO 205 colon = system: COLO 205 colon
DU-145 prostate = system: DU-145 prostate
NCI/ADR-RES ovarian = system: NCI/ADR-RES ovarian
HOP-62 NSCLC = system: HOP-62 NSCLC
UACC-62 melanoma = system: UACC-62 melanoma
NCI-H23 lung = system: NCI-H23 lung
OVCAR-5 ovarian = system: OVCAR-5 ovarian
HCT-15 colon = system: HCT-15 colon
TK-10 renal = system: TK-10 renal
MDA-MB-231 breast = system: MDA-MB-231 breast
BT-549 breast = system: BT-549 breast
RXF 393 renal = system: RXF 393 renal
OVCAR-3 ovarian = system: OVCAR-3 ovarian
CCRF-CEM leukemia = system: CCRF-CEM leukemia
RPMI-8226 leukemia = system: RPMI-8226 leukemia
UO-31 renal = system: UO-31 renal
786-0 renal = system: 786-0 renal
NCI-H460 lung = system: NCI-H460 lung
UACC-257 melanoma = system: UACC-257 melanoma
SNB-75 CNS = system: SNB-75 CNS
OVCAR-8 ovarian = system: OVCAR-8 ovarian
OVCAR-4 ovarian = system: OVCAR-4 ovarian
SK-OV-3 ovarian = system: SK-OV-3 ovarian
HL-60(TB) leukemia = system: HL-60(TB) leukemia
A498 renal = system: A498 renal

Question: Which GI50 (SK-MEL-2 melanoma) does the source give for `CSc1cc([C@@H]2C[C@H]2c2ccc(Cl)cc2)on1` here?
Answer: 25.2 µM

Question: What about the TGI (SK-MEL-2 melanoma) of the same compound?
Answer: 82.3 µM

Question: What about the GI50 (SF-268 CNS) of the same compound?
Answer: 21 µM

Question: And the TGI (SF-268 CNS)?
Answer: 46.3 µM

Question: What about the GI50 (U251 CNS) of the same compound?
Answer: 9.24 µM

Question: What about the TGI (U251 CNS) of the same compound?
Answer: 32.3 µM

Question: What about the GI50 (MOLT-4 leukemia) of the same compound?
Answer: 28.6 µM

Question: What about the TGI (MOLT-4 leukemia) of the same compound?
Answer: > 100 µM

Question: What about the GI50 (KM12 colon) of the same compound?
Answer: 14.5 µM

Question: And the TGI (KM12 colon)?
Answer: 30.3 µM

Question: What about the GI50 (K-562 leukemia) of the same compound?
Answer: 35.1 µM

Question: What about the TGI (K-562 leukemia) of the same compound?
Answer: > 100 µM

Question: And the GI50 (PC-3 prostate)?
Answer: 16 µM

Question: What about the TGI (PC-3 prostate) of the same compound?
Answer: 33.6 µM

Question: And the GI50 (SN12C renal)?
Answer: 5.17 µM

Question: And the TGI (SN12C renal)?
Answer: 20.5 µM

Question: And the GI50 (HCT-116 colon)?
Answer: 17.4 µM

Question: And the TGI (HCT-116 colon)?
Answer: 67.8 µM

Question: And the GI50 (IGROV1 ovarian)?
Answer: 14.8 µM

Question: And the TGI (IGROV1 ovarian)?
Answer: > 100 µM

Question: What about the GI50 (SNB-19 CNS) of the same compound?
Answer: 27.4 µM

Question: And the TGI (SNB-19 CNS)?
Answer: > 100 µM

Question: And the GI50 (EKVX NSCLC)?
Answer: 29.8 µM

Question: And the TGI (EKVX NSCLC)?
Answer: 55.8 µM

Question: And the GI50 (LOX IMVI melanoma)?
Answer: 3.99 µM

Question: What about the TGI (LOX IMVI melanoma) of the same compound?
Answer: 19.9 µM

Question: What about the GI50 (SF-295 CNS) of the same compound?
Answer: 34.1 µM

Question: And the TGI (SF-295 CNS)?
Answer: 69.2 µM

Question: And the GI50 (CAKI-1 renal)?
Answer: 12.5 µM

Question: What about the TGI (CAKI-1 renal) of the same compound?
Answer: 35.7 µM

Question: And the GI50 (SW-620 colon)?
Answer: 20.7 µM

Question: And the TGI (SW-620 colon)?
Answer: 59.8 µM

Question: What about the GI50 (M14 melanoma) of the same compound?
Answer: 9.27 µM

Question: And the TGI (M14 melanoma)?
Answer: > 100 µM

Question: What about the GI50 (NCI-H226 lung) of the same compound?
Answer: 11.4 µM

Question: And the TGI (NCI-H226 lung)?
Answer: 36.8 µM

Question: What about the GI50 (T-47D breast) of the same compound?
Answer: 22.2 µM

Question: What about the TGI (T-47D breast) of the same compound?
Answer: > 100 µM

Question: And the GI50 (HT29 colon)?
Answer: 18.6 µM

Question: What about the TGI (HT29 colon) of the same compound?
Answer: > 100 µM

Question: And the GI50 (SK-MEL-28 melanoma)?
Answer: 24.5 µM

Question: What about the TGI (SK-MEL-28 melanoma) of the same compound?
Answer: 96.7 µM

Question: And the GI50 (HCC-2998 colon)?
Answer: 1.25 µM

Question: And the TGI (HCC-2998 colon)?
Answer: 15 µM

Question: What about the GI50 (ACHN renal) of the same compound?
Answer: 13.9 µM

Question: What about the TGI (ACHN renal) of the same compound?
Answer: > 100 µM

Question: And the GI50 (A549 NSCLC)?
Answer: 21.6 µM

Question: What about the TGI (A549 NSCLC) of the same compound?
Answer: > 100 µM

Question: What about the GI50 (MDA-MB-435) of the same compound?
Answer: 16.8 µM

Question: What about the TGI (MDA-MB-435) of the same compound?
Answer: 45.1 µM

Question: And the GI50 (MCF7 breast)?
Answer: 16.3 µM

Question: And the TGI (MCF7 breast)?
Answer: 41 µM

Question: And the GI50 (NCI-H522 lung)?
Answer: 6.91 µM

Question: And the TGI (NCI-H522 lung)?
Answer: 45.9 µM

Question: And the GI50 (HOP-92 NSCLC)?
Answer: 7.97 µM

Question: And the TGI (HOP-92 NSCLC)?
Answer: 27.3 µM

Question: And the GI50 (COLO 205 colon)?
Answer: 23.9 µM

Question: What about the TGI (COLO 205 colon) of the same compound?
Answer: > 100 µM

Question: And the GI50 (DU-145 prostate)?
Answer: 19.6 µM

Question: And the TGI (DU-145 prostate)?
Answer: 42 µM

Question: What about the GI50 (NCI/ADR-RES ovarian) of the same compound?
Answer: 13.6 µM

Question: And the TGI (NCI/ADR-RES ovarian)?
Answer: 42.4 µM

Question: And the GI50 (HOP-62 NSCLC)?
Answer: 13.8 µM

Question: And the TGI (HOP-62 NSCLC)?
Answer: 41.8 µM

Question: And the GI50 (UACC-62 melanoma)?
Answer: 11.3 µM

Question: What about the TGI (UACC-62 melanoma) of the same compound?
Answer: 24.7 µM

Question: What about the GI50 (NCI-H23 lung) of the same compound?
Answer: 3.98 µM

Question: What about the TGI (NCI-H23 lung) of the same compound?
Answer: 18.1 µM

Question: What about the GI50 (OVCAR-5 ovarian) of the same compound?
Answer: 14.5 µM

Question: And the TGI (OVCAR-5 ovarian)?
Answer: 35.2 µM

Question: And the GI50 (HCT-15 colon)?
Answer: 10.8 µM

Question: And the TGI (HCT-15 colon)?
Answer: 36.9 µM

Question: And the GI50 (TK-10 renal)?
Answer: 12.5 µM

Question: What about the TGI (TK-10 renal) of the same compound?
Answer: 31.5 µM

Question: And the GI50 (MDA-MB-231 breast)?
Answer: 5.51 µM

Question: What about the TGI (MDA-MB-231 breast) of the same compound?
Answer: 21.7 µM

Question: And the GI50 (BT-549 breast)?
Answer: 23.9 µM

Question: And the TGI (BT-549 breast)?
Answer: 62 µM

Question: And the GI50 (RXF 393 renal)?
Answer: 2.14 µM

Question: And the TGI (RXF 393 renal)?
Answer: 12.6 µM

Question: What about the GI50 (OVCAR-3 ovarian) of the same compound?
Answer: 15.4 µM

Question: What about the TGI (OVCAR-3 ovarian) of the same compound?
Answer: 33.4 µM

Question: What about the GI50 (CCRF-CEM leukemia) of the same compound?
Answer: 20.3 µM

Question: And the TGI (CCRF-CEM leukemia)?
Answer: 47.2 µM

Question: And the GI50 (RPMI-8226 leukemia)?
Answer: 22.7 µM

Question: What about the TGI (RPMI-8226 leukemia) of the same compound?
Answer: 44.8 µM

Question: What about the GI50 (UO-31 renal) of the same compound?
Answer: 21.6 µM

Question: And the TGI (UO-31 renal)?
Answer: > 100 µM

Question: What about the GI50 (786-0 renal) of the same compound?
Answer: 15 µM

Question: What about the TGI (786-0 renal) of the same compound?
Answer: 55.3 µM

Question: And the GI50 (NCI-H460 lung)?
Answer: 19 µM

Question: And the TGI (NCI-H460 lung)?
Answer: 43 µM

Question: And the GI50 (UACC-257 melanoma)?
Answer: 15.8 µM

Question: And the TGI (UACC-257 melanoma)?
Answer: 35.6 µM

Question: And the GI50 (SNB-75 CNS)?
Answer: 21.3 µM

Question: And the TGI (SNB-75 CNS)?
Answer: 49.5 µM

Question: What about the GI50 (OVCAR-8 ovarian) of the same compound?
Answer: 12.3 µM

Question: What about the TGI (OVCAR-8 ovarian) of the same compound?
Answer: 46.1 µM

Question: What about the GI50 (OVCAR-4 ovarian) of the same compound?
Answer: 31.3 µM

Question: And the TGI (OVCAR-4 ovarian)?
Answer: > 100 µM

Question: What about the GI50 (SK-OV-3 ovarian) of the same compound?
Answer: 50.6 µM

Question: What about the TGI (SK-OV-3 ovarian) of the same compound?
Answer: > 100 µM

Question: How did the TGI (EKVX NSCLC) turn out when `Cc1cc(N)c2ccccc2[n+]1CCCCCCCCCCNc1cc(C)[n+](CCCCCCCCCC[n+]2c(C)cc(N)c3ccccc32)c2ccccc12` was run?
Answer: 33.7 µM

Question: What about the TGI (CAKI-1 renal) of the same compound?
Answer: > 100 µM

Question: And the TGI (HT29 colon)?
Answer: 29 µM

Question: And the TGI (MCF7 breast)?
Answer: > 100 µM

Question: What about the TGI (COLO 205 colon) of the same compound?
Answer: > 100 µM

Question: And the TGI (RPMI-8226 leukemia)?
Answer: 1.52 µM

Question: For `CN(C)c1ccc(/C=C/C=c2/c3ccccc3n3c2cc(-c2ccccc2)[n+]3C)cc1`, which TGI (MOLT-4 leukemia) is on record?
Answer: 0.724 µM

Question: And the TGI (K-562 leukemia)?
Answer: > 100 µM

Question: What about the TGI (PC-3 prostate) of the same compound?
Answer: 1.17 µM

Question: What about the TGI (HL-60(TB) leukemia) of the same compound?
Answer: 0.509 µM

Question: And the TGI (EKVX NSCLC)?
Answer: 1.57 µM

Question: And the TGI (CAKI-1 renal)?
Answer: 1.17 µM

Question: What about the TGI (NCI-H226 lung) of the same compound?
Answer: 1.82 µM

Question: What about the TGI (ACHN renal) of the same compound?
Answer: 1.63 µM

Question: What about the TGI (DU-145 prostate) of the same compound?
Answer: 1.03 µM

Question: And the TGI (A498 renal)?
Answer: 1.23 µM

Question: And the TGI (NCI/ADR-RES ovarian)?
Answer: > 100 µM

Question: What about the TGI (HOP-62 NSCLC) of the same compound?
Answer: 1.19 µM

Question: What about the TGI (RXF 393 renal) of the same compound?
Answer: 1.62 µM

Question: What about the TGI (CCRF-CEM leukemia) of the same compound?
Answer: > 100 µM

Question: What about the TGI (OVCAR-4 ovarian) of the same compound?
Answer: 2.11 µM
